Reference: US20100324282A1, “METHOD FOR SEPARATING HETEROPOLYACID” (TOYOTA JIDOSHA KABUSHIKI KAISHA, priority 2009, published 2010)

Key:
Type in all cases: physicochemical
[1] = Heating reaction test with saturated aqueous solution of phosphotungstic acid: distribution of phosphotungstic acid; conditions: saturated aqueous solution of phosphotungstic acid triacontahydrate 30 g + glucose 5 g, heated
Experimental: (§1) A saturated aqueous solution containing 30 g of phosphotungstic acid triacontahydrate was mixed with 5 g of glucose, the mixture was heated, and various types of the selected organic solvents were then added thereto in amounts 3 times greater than the minimal amount of the solvent necessary to dissolve phosphotungstic acid (by volume). The resultant was stirred and allowed to stand, followed by phase separation. Samples were dried using a centrifuge, the phosphotungstic acid content in the dried specimens was analyzed by the ICP mass spectrometer, and glucose content was assayed via liquid chromatography.

[2] = Heating reaction test with phosphotungstic acid triacontahydrate: distribution of phosphotungstic acid; conditions: phosphotungstic acid triacontahydrate 30 g + glucose 5 g, heated
Experimental: (§2) Phosphotungstic acid triacontahydrate (30 g) was mixed with glucose (5 g), the resultant was heated, and various types of the selected organic solvents were added in amounts 3 times greater than the minimal amount of the solvent necessary to dissolve phosphotungstic acid (by volume). The resultant was stirred and allowed to stand, followed by phase separation. The samples were dried using a centrifuge, the phosphotungstic acid content in the dried specimens was analyzed by the ICP mass spectrometer, and glucose content was assayed via liquid chromatography.

[3] = Heating reaction test with phosphotungstic acid triacontahydrate: distribution of glucose; conditions: phosphotungstic acid triacontahydrate 30 g + glucose 5 g, heated
Experimental: as §2

[4] = Assay of solubility of phosphotungstic acid in organic solvent; conditions: in the listed organic solvent, room temperature
Experimental: Phosphotungstic acid was added to an organic solvent at room temperature. Phosphotungstic acid was continuously added until it was not able to dissolve therein, and solubility was determined based on the entire amount of phosphotungstic acid added.

[5] = Assay of solubility of glucose in organic solvent; conditions: in the listed organic solvent, room temperature
Experimental: Glucose was added to an organic solvent at room temperature. Glucose was continuously added until it was not able to dissolve therein, and solubility was determined based on the entire amount of glucose added.

[6] = Heating reaction test with saturated aqueous solution of phosphotungstic acid: distribution of glucose; conditions: saturated aqueous solution of phosphotungstic acid triacontahydrate 30 g + glucose 5 g, heated
Experimental: as §1

[7] = Distribution ratio of phosphotungstic acid to organic solvent and water (powdery phosphotungstic acid); conditions: ICP
Experimental: (§3) The resultant was stirred and allowed to stand, followed by phase separation. Samples were obtained from each phase in an amount of 1 ml and the samples were dried using a centrifuge. The dried specimens were analyzed by the inductively coupled plasma (ICP) mass spectrometer. Water was dissolved in each phase in order to identify an aqueous phase.

[8] = Distribution ratio of phosphotungstic acid to organic solvent and water (saturated aqueous solution of phosphotungstic acid); conditions: ICP
Experimental: as §3, with “ICP” for “inductively coupled plasma (ICP)”

[9] = Assay of distribution ratio of glucose (saturated aqueous solution of phosphotungstic acid)
Experimental: n-Butyl ethyl ether (26.67 ml) was added to a saturated aqueous solution containing 30 g of phosphotungstic acid. The resultant was stirred and allowed to stand, followed by phase separation. Glucose was continuously added until glucose was not able to dissolve in each phase. Solubility of glucose in n-butyl ethyl ether was determined based on the amount of glucose dissolved.

Distribution ratio of phosphotungstic acid (based on tungsten) (%) ([1]; First phase) | Distribution ratio of phosphotungstic acid (based on tungsten) (%) ([1]; Second phase (aqueous phase)) | Distribution ratio of phosphotungstic acid (based on tungsten) (%) ([2]; First phase) | Distribution ratio of phosphotungstic acid (based on tungsten) (%) ([2]; Second phase (aqueous phase)) | Distribution ratio of glucose (%) ([3]; Second phase (aqueous phase)) | Solubility of phosphotungstic acid (wt %) [4] [wt %] | Solubility of glucose (wt %) [5] [wt %] | Distribution ratio of glucose (%) ([6]; First phase) | Distribution ratio of glucose (%) ([6]; Second phase (aqueous phase)) | Distribution ratio of phosphotungstic acid (based on tungsten) (%) ([7]; First phase (from top)) | Distribution ratio of phosphotungstic acid (based on tungsten) (%) ([7]; Second phase (from top)) | Distribution ratio of phosphotungstic acid (based on tungsten) (%) ([8]; First phase (from top)) | Distribution ratio of phosphotungstic acid (based on tungsten) (%) ([8]; Second phase (from top)) | Distribution ratio of phosphotungstic acid (based on tungsten) (%) ([8]; Third phase (from top)) | Structure (SMILES) | Distribution ratio of phosphotungstic acid (based on tungsten) (%) ([1]; Third phase) | Distribution ratio of phosphotungstic acid (based on tungsten) (%) ([2]; Third phase) | Distribution ratio of glucose (%) ([3]; Third phase) | Distribution ratio of glucose (%) ([6]; Third phase) | Distribution ratio of phosphotungstic acid (based on tungsten) (%) ([7]; Third phase (from top)) | further results
96.8 | 3.2 | 96.9 | 3.1 | 100 | 200 | <0.045 | 0 | 100 | 97.7 | 2.3 | 1.3 | 97.3 | 1.4 | CCCCCCCCO [1-Octanol] | – | – | – | – | – | –
98.1 | 1.9 | 98.3 | 1.7 | 100 | 200 | <0.043 | 0.8 | 99.2 | 97.9 | 2.1 | 1.0 | 97.7 | 1.3 | CCCCCCC(C)O (stereo not shown) [2-Octanol] | – | – | – | – | – | –
0.1 | 8.9 | 0.1 | 10.2 | 100 | 300 | <0.03 | – | 100 | 0.1 | 2.9 | 0.1 | 5.1 | 94.8 | CCCCOCC [n-Butyl ethyl ether] | 91.0 | 89.7 | 0 | 0 | 97.0 | Distribution ratio of glucose (%) ([9]; First phase): 0.1%; Distribution ratio of glucose (%) ([9]; Second phase (aqueous)): 97.7%; Distribution ratio of glucose (%) ([9]; Third phase): 2.2%; Distribution ratio of phosphotungstic acid (based on tungsten) (%) ([7]; Third phase (from top), listed as n-butyl ethyl ether): 97%

Structure (SMILES) | Distribution ratio of phosphotungstic acid (based on tungsten) (%) ([1]; First phase) | Distribution ratio of phosphotungstic acid (based on tungsten) (%) ([1]; Second phase (aqueous phase)) | Distribution ratio of phosphotungstic acid (based on tungsten) (%) ([2]; First phase) | Distribution ratio of phosphotungstic acid (based on tungsten) (%) ([2]; Second phase (aqueous phase)) | Distribution ratio of glucose (%) ([3]; Second phase (aqueous phase)) | Solubility of phosphotungstic acid (wt %) [4] [wt %] | Solubility of glucose (wt %) [5] [wt %] | Distribution ratio of glucose (%) ([6]; First phase) | Distribution ratio of glucose (%) ([6]; Second phase (aqueous phase)) | Distribution ratio of phosphotungstic acid (based on tungsten) (%) ([7]; First phase (from top)) | Distribution ratio of phosphotungstic acid (based on tungsten) (%) ([7]; Second phase (from top)) | Distribution ratio of phosphotungstic acid (based on tungsten) (%) ([8]; First phase (from top)) | Distribution ratio of phosphotungstic acid (based on tungsten) (%) ([8]; Second phase (from top)) | Distribution ratio of phosphotungstic acid (based on tungsten) (%) ([8]; Third phase (from top)) | Distribution ratio of phosphotungstic acid (based on tungsten) (%) ([1]; Third phase) | Distribution ratio of phosphotungstic acid (based on tungsten) (%) ([2]; Third phase) | Distribution ratio of glucose (%) ([3]; Third phase) | Distribution ratio of glucose (%) ([6]; Third phase) | Distribution ratio of phosphotungstic acid (based on tungsten) (%) ([7]; Third phase (from top)) | further results
CCOCC [Diethyl ether] | 0.04 | 1.6 | 0.03 | 1.7 | 100 | >229.3 | <0.025 | 0 | 100 | 0.01 | 99.4 | 0.01 | 1.5 | 98.5 | 98.3 | 98.3 | 0 | 0 | 0.6 | Distribution ratio of glucose (%) ([3]; First phase): 0%
